Each structure is given as a SMILES string.

Consider 10 molecules from US7671165B2, “Method of forming polycarbonate” (Sabic Innovative Plastics IP B.V., priority 2008, dated 2010).

Series [1] can be described thus: Solubility of catalysts in MS and co-solvents.
A short description of series [2]: Solubility of reaction components and additives in MS. The class given is physicochemical.

With `CC(=O)[O-].[Cs+]` [CS-Acetate], the “Solubility of catalyst, T (room)” value in series [1] (0.79 wt %, 0.1 g, 10.0 ml MS + 1.0 ml MeOH) is on record as “Dissolved”. Besides, the “Stable at T (room) for:” value in series [1] (0.79 wt %, 10.0 ml MS + 1.0 ml MeOH) is over 24 h.
Regarding `CC(C)(C)c1ccc(OP(Oc2ccc(C(C)(C)C)cc2C(C)(C)C)Oc2ccc(C(C)(C)C)cc2C(C)(C)C)c(C(C)(C)C)c1` [Irgafos 168], the “Solubility in MS, T (room)” value in series [2] (0.8 wt %, 0.1 g in 10 ml MS) was “Dissolved”. Moreover, the “Solubility in MS, T (50° C.)” value in series [2] (4.1 wt %, 0.5 g in 10 ml MS) was “Dissolved”. In addition, the “Stable at T (room) for:” value in series [2] (solution in MS, 0.8 wt %) was 5 h; in series [2] (solution in MS, 4.1 wt %), under 2 h.
For `COC(=O)c1ccccc1OC(=O)Oc1ccccc1C(=O)OC` [BMSC, bismethylsalicylcarbonate], in series [2] (4.1 wt %, 0.5 g in 10 ml MS), the “Solubility in MS, T (90° C.)” value was “Dissolved”. For the same molecule, the “Solubility in MS, T (100° C.)” value in series [2] (17.5 wt %, 2.5 g in 10 ml MS) was “Dissolved”. Moreover, the “Stable at T (room) for:” value in series [2] (solution in MS, 4.1 wt %) was over 24 h; in series [2] (solution in MS, 17.5 wt %), over 24 h.
In the case of `O=C(Oc1ccccc1)Oc1ccccc1` [Diphenyl Carbonate], the “Solubility in MS, T (90° C.)” value in series [2] (4.1 wt %, 0.5 g in 10 ml MS) is recorded as “Dissolved”. Besides, the “Stable at T (room) for:” value in series [2] (solution in MS, 4.1 wt %) was over 24 h.
Take `CC(=O)[O-].CCCC[N+](CCCC)(CCCC)CCCC` [Tetra Butyl Ammonium Acetate]: the “Stable at T (room) for:” value in series [1] (2.47 wt %, 10.0 ml MS, no co-solvent) was over 72 h.
Take `Cc1cc(O)ccc1O` [Methyl hydroquinone]: the “Solubility in MS, T (room)” value in series [2] (0.8 wt %, 0.1 g in 10 ml MS) is “Dissolved”. In addition, the “Solubility in MS, T (90° C.)” value in series [2] (7.8 wt %, 1 g in 10 ml MS) was “Dissolved”.
Regarding `O=C(O)CCCCCCCCCCCCC(=O)O` [1,12-Dodecanedicarboxylic acid], the “Solubility in MS, T (90° C.)” value in series [2] (0.8 wt %, 0.1 g in 10 ml MS) is “Dissolved”. Also, the “Stable at T (room) for:” value in series [2] (solution in MS, 0.8 wt %, result in words) was “Crystalized”.
As to `O[C@@H]1CO[C@H]2[C@@H]1OC[C@@H]2O` [Isosorbide, 1,4:3,6-dianhydro-D-sorbitol], the “Solubility in MS, T (room)” value in series [2] (0.8 wt %, 0.1 g in 10 ml MS) is “Dissolved”; in series [2] (4.1 wt %, 0.5 g in 10 ml MS) it was “Dissolved”. The “Stable at T (room) for:” value in series [2] (solution in MS, 0.8 wt %) is over 48 h; in series [2] (solution in MS, 4.1 wt %), over 24 h.
Take `Oc1cccc(O)c1` [Resorcinol]: the “Stable at T (room) for:” value was over 48 h in series [2] (solution in MS, 0.8 wt %) and over 24 h in series [2] (solution in MS, 7.8 wt %).
As for `CC(C)(c1ccccc1)c1ccc(O)cc1` [Para-Cumyl Phenol], the “Stable at T (room) for:” value in series [2] was over 24 h. Moreover, the “Solubility in MS, T (room)” value is listed as “Dissolved” in series [2] (4.1 wt %, 0.5 g in 10 ml MS); “Dissolved” in series [2] (17.5 wt %, 2.5 g in 10 ml MS); “Dissolved” in series [2] (29.7 wt %, 5 g in 10 ml MS).
